Data published in patent US20230000813A1, “COMPOUND FOR THE TREATMENT OF BOVINE OR SWINE RESPIRATORY DISEASE” (Intervet Inc., priority 2016, published 2023).
In brackets after ≈: the same amount, converted by molar mass. Several values for one entry are separate records, joined by “and”; a condition that tells them apart may be missing. Identical values can stand only once. Marks after values point to notes of the source that are not given here.

Key:
[1] = system: M. haemolytica M7/2, serotype A:1, ID 6357; test: Mannheimia haemolytica cattle lung infection model, efficacy (Example 8); assay type: in vivo, Holstein black pied cattle calves; parameters: key to General behavior, score: 0 = normal; 1 = slightly depressive; 2 = moderately depressive; 3 = highly depressive; 4 = recumbency; key to Re-isolation of bacteria, Left Bronchial swab / Re-isolation of bacteria, Right Bronchial swab: − no bacterial growth; + low; ++ medium; +++ high amount of bacterial growth; details: for Food consumption, cumulated for all animals in the group: 3 calves; for Lung score (including grade and percent Lung consolidation): grade of consolidation 0 to 3
Method: 15 male Holstein black pied cattle calves of ca. 4 months age were randomly assigned to the study groups ensuring an equal distribution of body weight. The animal weight was approximately 98-133.5 kg on D-1.
Calves were infected on Day 0 via intratracheal instillation of approximately 300 mL of a M. haemolytica PBS suspension containing approximately 3×10^9 CFU M. haemolytica in late log phase.
Three animals each were treated one hour after infection by subcutaneous (SC) administration of Compound 329 in an aqueous 30% (w/v) Captisol® solution for injection at a dose of 10 mg/kg BW.
The respective dose volume was injected on the sides of the thoracic wall. Injection volumes exceeding 10 mL were divided into one portion of 10 mL administered to the left side and the remaining rest administered at different injection sites on the other side. Animals in one control group were treated with a commercially available Enrofloxacin solution (Baytril ® 10%, Bayer Animal Health) at the recommended dose of 10 mg/kg BW. The second control group was treated with the galenic diluent (30% (w/v) Captisol®, dissolved in water) as placebo.
Food consumption was measured. Single individual blood samples were collected from the 12 animals at the following time points: D-1 (predose), 30 minutes, 2, 4, 6, 24 h and at D2 (ca. 45 h) after administration. After the day 2 blood sampling, the infected cattle were slaughtered. The lungs were weighted. Lung states and lung scores were observed morphologically.
At necropsy from animals treated with test items or the positive control, samples of epithelial lining fluid (ELF), lung tissue, and additionally tissue of liver and kidney were collected. From each lung two bacteriological swaps were taken from the left and right bronchus.
From each lung two tissue samples were collected by clipping from at least two locations, one from morphologically unchanged tissue, one from the edge of pathomorphologically changed areas.

[2] = system: Mannheimia haemolytica MH 12180 (KLI-02944, BRD field isolate); test: MIC, broth-microdilution (CLSI VET01-A4); assay type: cell-based; details: strain MH 12180
Method: (§1) The Minimum inhibitory concentrations (MIC) of compounds according to the invention were determined by the broth-microdilution method according to CLSI document VET01-A4.
(§2) Microdilution trays containing a doubling dilution series of the test compound were used for the tests.
(§3) The MIC results were interpreted according to the CLSI documents VET01-S3. The lowest concentration of compound at which no visible growth (i.e. no turbidity) detected by the unaided eye was recorded as the MIC.

[3] = system: Acinetobacter baumanii AB 16496 (ATCC 19606, reference strain); test: MIC, broth-microdilution (CLSI VET01-A4); assay type: cell-based; details: strain AB 16496
Method: as §1, §2, §3

[4] = system: Staphylococcus aureus SA 5816 (2139, mastitis field isolate); test: MIC, broth-microdilution (CLSI VET01-A4); assay type: cell-based; details: strain SA 5816
Method: as §1, §2, §3

[5] = system: Pasteurella multocida PM 14426 (0006-439, BRD field isolate, macrolide-resistant); test: MIC, broth-microdilution (CLSI VET01-A4); assay type: cell-based; details: strain PM 14426, macrolide-resistant
Method: as §1, §2, §3

[6] = system: Acinetobacter baumanii AB 15919 (IV369-2012, dermatitis field isolate); test: MIC, broth-microdilution (CLSI VET01-A4); assay type: cell-based; details: strain AB 15919
Method: as §1, §2, §3

[7] = system: Staphylococcus aureus SA 6114 (ATCC 29213, reference strain); test: MIC, broth-microdilution (CLSI VET01-A4); assay type: cell-based; details: strain SA 6114
Method: as §1, §2, §3

[8] = infected calves, SC 10 mg/kg, in words
[9] = section on day 2, infected calves, SC 10 mg/kg, individual animals and mean, 10 mg/kg
[10] = section on day 2, infected calves, SC 10 mg/kg, individual animals and mean, 10 mg/kg, mean
[11] = section on day 2, infected calves, SC single 10 mg/kg, individual animals

In the case of `CC(C)(N)C(NC(=O)c1ccc(C#Cc2ccc(CNC3CC3)cc2)cc1)C(=O)NO` (stereo not drawn) [C. 329], the “General behavior, score” value ([1]; D 0 am (before infection), calves, SC 10 mg/kg, individual animals and mean, 10 mg/kg) was 0, the “General behavior, score” value ([1]; D 0 am (before infection), calves, SC 10 mg/kg, individual animals and mean, 10 mg/kg, mean) was 0.0 score and the “Food consumption, cumulated for all animals in the group” value (from here on “Food consumption, cumulated”) ([1]; D 0 am, after infection and treatment, SC 10 mg/kg) was 470 g. The “Food consumption, cumulated” value ([1]; D 0 pm, SC 10 mg/kg) was 1800** g, the “General behavior, score” value ([1]; D 0 pm, calves infected with M. haemolytica, SC 10 mg/kg 1 h after infection, individual animals and mean, 10 mg/kg) was 2 and 1 (2×) and the “General behavior, score” value ([1]; D 0 pm, calves infected with M. haemolytica, SC 10 mg/kg 1 h after infection, individual animals and mean, 10 mg/kg, mean) was 1.3 score. For the same molecule, the “General behavior, score” value ([1]; D 1 am, calves infected with M. haemolytica, SC 10 mg/kg 1 h after infection, individual animals and mean, 10 mg/kg) was 1 and 0 (2×), the “General behavior, score” value ([1]; D 1 am, calves infected with M. haemolytica, SC 10 mg/kg 1 h after infection, individual animals and mean, 10 mg/kg, mean) was 0.3 score and the “General behavior, score” value ([1]; D 1 pm, calves infected with M. haemolytica, SC 10 mg/kg 1 h after infection, individual animals and mean, 10 mg/kg) was 1 (2×) and 0. For the same molecule, the “General behavior, score” value ([1]; D 1 pm, calves infected with M. haemolytica, SC 10 mg/kg 1 h after infection, individual animals and mean, 10 mg/kg, mean) was 0.7 score, the “General behavior, score” value ([1]; D 2 am, calves infected with M. haemolytica, SC 10 mg/kg 1 h after infection, individual animals and mean, 10 mg/kg) was 0 and the “General behavior, score” value ([1]; D 2 am, calves infected with M. haemolytica, SC 10 mg/kg 1 h after infection, individual animals and mean, 10 mg/kg, mean) was 0.0 score. For the same molecule, the “Food consumption, cumulated” value ([1]; D +1 am, SC 10 mg/kg) was 4800 g, the “Food consumption, cumulated” value ([1]; D +1 pm, SC 10 mg/kg) was 4800 g and the “Food consumption, cumulated” value ([1]; D −1 (before infection), SC 10 mg/kg) was 4800 g. The “general behavior and food uptake” value [1, 8] was “comparable to the positive control”, the mean bacterial re-isolation [1, 8] was “Very low” and the “Lung score (including grade and percent Lung consolidation)” value [1, 9] was 32.4 and 29.5 and 37.7. For the same molecule, the “Lung score (including grade and percent Lung consolidation)” value [1, 10] was 33.2, the Lung consolidations [1, 9] was 20.9% and 14.8% and 21.6% and the Lung weight [1, 9] was 1717 g and 1549 g and 1583 g. For the same molecule, the Lung/body weight ratio [1, 9] was ~1.3% and 1.36% and 1.30% and 1.41%, the Lung consolidations [1, 10] was 19.1% and the Lung weight [1, 10] was 1616 g. For the same molecule, the “Re-isolation of bacteria, Left Bronchial swab” value [1, 11] was “−”, the “Re-isolation of bacteria, Right Bronchial swab” value [1, 11] was “−” and the “efficacy in the lung model infection with M. haemolytica in calves” value ([1]; single SC treatment with 10 mg/kg BW, conclusion in words) was “good efficacy”. The MIC [2] was 0.5 µg/mL (≈ 1.19 µM), the MIC [3] was >16 µg/mL and the MIC [4] was >16 µg/mL. The MIC [5] was ≤0.016 µg/mL, the MIC [6] was 16 µg/mL (≈ 38 µM) and the MIC [7] was >16 µg/mL.
